For data set [1], the target named is T1, p38 MAPKα isoform (MAPK14: Invitrogen) (Homo sapiens, UniProt Q16539).
T1 construct: purchased Invitrogen
Description: p38 MAPKα enzyme inhibition assay (FRET, Z-LYTE, via MAPKAP-K2 activation). It counts as biochemical. To be noted: 2 hr pre-incubation, ATP 10.0 μM; read-out: Enzyme Inhibition IC50 p38α.
Description: The enzyme inhibitory activities of compounds disclosed herein were determined by fluorescence resonance energy transfer (FRET) using synthetic peptides labelled with both donor and acceptor fluorophores (Z-LYTE, Invitrogen Ltd., Paisley, UK). Recombinant, phosphorylated p38 MAPKγ (MAPK12:Invitrogen) was diluted in HEPES buffer, mixed with the test compound at the desired final concentrations and incubated for 2 hr at RT. The FRET peptide (2 μM) and ATP (100 μM) were added to the enzyme/compound mixture and incubated for 1 hr. Development reagent (protease) was added for 1 hr prior to detection in a fluorescence microplate reader (Varioskan® Flash, ThermoFisher Scientific). The site-specific protease cleaves non-phosphorylated peptide only and eliminates the FRET signal. Phosphorylation levels of each reaction were calculated using the ratio of coumarin emission (donor) over fluorescein emission (acceptor) for which high ratios indicate high phosphorylation and low ratios indicate low phosphorylation levels.
For the p38 MAPKα isoform (MAPK14: Invitrogen), enzyme activity was evaluated indirectly by determining the level of activation/phosphorylation of the down-stream molecule, MAPKAP-K2. The p38 MAPKα protein was mixed with the test compound for 2 hr at RT. […] Development reagent was then added and the mixture incubated for 1 hr before detection by fluorescence completed the assay protocol.

For data set [2], the target named is T2, Recombinant, phosphorylated p38 MAPKγ (MAPK12:Invitrogen) (Homo sapiens, UniProt P53778).
T2 construct: purchased Invitrogen
T2 sequence (P53778 1-367): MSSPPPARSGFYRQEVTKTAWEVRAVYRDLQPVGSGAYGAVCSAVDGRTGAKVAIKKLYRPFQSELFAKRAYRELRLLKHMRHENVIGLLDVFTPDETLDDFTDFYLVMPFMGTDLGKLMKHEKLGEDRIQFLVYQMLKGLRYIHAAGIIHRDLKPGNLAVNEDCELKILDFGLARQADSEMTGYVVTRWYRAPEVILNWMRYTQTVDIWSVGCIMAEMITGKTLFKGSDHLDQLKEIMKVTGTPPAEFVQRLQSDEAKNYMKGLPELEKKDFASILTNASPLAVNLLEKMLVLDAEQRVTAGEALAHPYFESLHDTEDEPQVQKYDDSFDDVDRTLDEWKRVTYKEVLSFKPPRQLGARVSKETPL
In words: p38 MAPKγ enzyme inhibition assay (FRET, Z-LYTE). It counts as biochemical. Particulars: 2 hr pre-incubation, ATP 100 μM; read-out: Enzyme Inhibition IC50 p38γ.

Data set [3] deals with LPS-induced TNFα release in THP-1 cells. Description: LPS-induced TNFα release in THP-1 cells. To be noted: Homo sapiens, 3 μg/mL LPS, 4 hr. It counts as cell-based. The procedure:
Cellular Potency as Determined by LPS-Induced TNFα Release in THP-1 Cells
THP-1 cells, a human monocytic cell line, were stimulated with 3 μg/mL of LPS (from E. Coli; 0111:B4, Sigma) for 4 hr and the supernatant collected for determination of the TNFα concentration by sandwich ELISA (Duo-set, R&D systems). The inhibition of TNFα production was calculated at each concentration by comparison with vehicle control. The 50% inhibitory concentration (IC50) was determined from the resultant concentration-response curve.

Data set [4] concerns LPS-induced TNFα release in d-U937 cells. Description: LPS-induced TNFα release in d-U937 cells. It counts as cell-based. To be noted: Homo sapiens, dU937, 4 h; read-out: LPS/TNFα REC50 d-U937. Here is the method:
(§1) Cellular Potency as Determined by LPS-Induced TNFα/IL-8 Release in d-U937Cells
(§2) U937 cells, a human monocytic cell line, were differentiated to macrophage-type cells by incubation with phorbol myristate acetate (PMA; 100 ng/mL) for 48 to 72 hr. Cells were pre-incubated with final concentrations of test compound for 2 hr and were then stimulated with 0.1 μg/mL of LPS (from E. Coli: O111:B4, Sigma) for 4 hr. The supernatant was collected for determination of TNFα and IL-8 concentrations by sandwich ELISA (Duo-set, R&D systems). […] The relative 50% effective concentration (REC50) was determined from the resultant concentration-response curve. The inhibition of IL-8 production was calculated at each concentration of test compound by comparison with vehicle control. The 50% inhibitory concentration (IC50) was determined from the resultant concentration-response curve.

Data set [5] deals with LPS-induced IL-8 release in d-U937 cells. Description: LPS-induced IL-8 release in d-U937 cells. Particulars: Homo sapiens, dU937, 0.1 μg/mL LPS, 4 hr. It is filed as cell-based. The procedure:
as §1, §2

The test system of data set [6] is Poly I:C-induced ICAM-1 expression in BEAS2B cells. Description: Poly I:C-induced ICAM-1 induction in BEAS2B cells. It counts as cell-based. Particulars: Homo sapiens, BEAS-2B, poly I:C 1 μg/mL, 18 hr, read-out: PolyI:C/ICAM1 IC50 BEAS2B. Here is the method:
Cellular Potency as Determined by Poly I:C-Induced ICAM-1 Induction in BEAS2B Cells
Poly I:C (1 μg/mL) (Invivogen Ltd., San Diego, Calif.) was transfected into BEAS2B cells (human bronchial epithelial cells, ATCC) with Oligofectamine (Invitrogen, Carlsbad, Calif.). Cells were pre-incubated with final concentrations of test compounds for 2 hr and the level of ICAM1 expression on the cell surface was determined by cell-based ELISA. At a time point 18 hr after poly I:C transfection, cells were fixed with 4% formaldehyde in PBS and then endogenous peroxidase was quenched by the addition of 0.1% sodium azide and 1% hydrogen peroxide. Cells were washed with wash-buffer (0.1% Tween in PBS: PBS-Tween). and after blocking the wells with 5% milk in PBS-Tween for 1 hr, the cells were incubated with anti-human ICAM-1 antibody (Cell Signaling Technology, Danvers, Mass.) in 1% BSA PBS overnight at 4° C. The cells were washed with PBS-Tween and incubated with the secondary antibody (HRP-conjugated anti-rabbit IgG, Dako Ltd., Glostrup, Denmark). The ICAM-1 signal was detected by adding substrate and reading the absorbance at 450 nm against a reference wavelength of 655 nm using a spectrophotometer. The cells were then washed with PBS-Tween and total cell numbers in each well were determined by reading absorbance at 595 nm after Crystal Violet staining and elution by 1% SDS solution. The measured OD 450-655 readings were corrected for cell number by dividing with the OD595 reading in each well. The inhibition of ICAM-1 expression was calculated at each concentration of test compound by comparison with vehicle control. The 50% inhibitory concentration (IC50) was determined from the resultant concentration-response curve.

For data set [7], the system named is Differentiated U937 cells. In words: MTT assay: cell viability on exposure to test compounds. It is filed as cell-based, human. Particulars: percentage loss of cell viability vs vehicle, 1 μg/mL; for MTT Assay (Viability) 4 h d-U937: 5% FCS; for MTT Assay (Viability) 24 h d-U937: 10% FCS. Here is the method:
MTT Assay: Determination of Cell Viability on Exposure to Test Compounds
Differentiated U937 cells were pre-incubated with each test compound under two protocols: the first for 4 hr in 5% FCS and the second in 10% FCS for 24 h. The supernatant was replaced with 200 μL of new media and 10 μL of MTT stock solution (5 mg/mL) was added to each well. After incubation for 1 hr the media were removed, 200 μL of DMSO was added to each well and the plates were shaken lightly for 1 hr prior to reading the absorbance at 550 nm. The percentage loss of cell viability was calculated for each well relative to vehicle (0.5% DMSO) treatment. Consequently an apparent increase in cell viability for drug treatment relative to vehicle is tabulated as a negative percentage.

T1 sequence (Q16539 whole entry, canonical isoform): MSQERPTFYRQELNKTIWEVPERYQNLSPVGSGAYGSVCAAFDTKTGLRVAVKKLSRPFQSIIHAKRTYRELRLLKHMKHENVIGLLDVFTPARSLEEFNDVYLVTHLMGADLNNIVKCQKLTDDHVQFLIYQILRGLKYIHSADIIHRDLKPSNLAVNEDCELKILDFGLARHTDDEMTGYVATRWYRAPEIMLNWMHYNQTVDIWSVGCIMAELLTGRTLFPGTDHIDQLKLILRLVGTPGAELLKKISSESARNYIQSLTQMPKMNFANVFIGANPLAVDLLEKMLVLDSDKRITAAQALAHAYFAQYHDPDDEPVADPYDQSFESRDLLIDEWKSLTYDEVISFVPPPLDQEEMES

In the case of `COc1ccc(-n2nc(C(C)(C)C)cc2NC(=O)Nc2ccc(Oc3ccnc(NC(=O)CO)c3)c3ccccc23)cc1` [Example 4, N-(4-(4-(3-(3-tert-Butyl-1-(4-methoxyphenyl)-1H-pyrazol-5-yl)ureido)naphthalen-1-yloxy)pyridin-2-yl)-2-hydroxyacetamide], the IC50 in data set [1] was determined as 4.6 nM; in data set [2], 150 nM; in data set [3] it was 1.3 nM; in data set [5] it was 3 nM; in data set [6] it was 4 nM. Besides, the EC50 in data set [4] came to 0.04 nM. Also, the “MTT Assay (Viability) 4 h d-U937” value in data set [7] is listed as −3.9%. Moreover, the “MTT Assay (Viability) 24 h d-U937” value in data set [7] is −38.2%.
On to `COCC(=O)Nc1cc(Oc2ccc(NC(=O)Nc3cc(C(F)(F)F)nn3-c3ccc(C)cc3)c3ccccc23)ccn1` [Example 29, 2-methoxy-N-(4-(4-(3-(1-p-tolyl-3-(trifluoromethyl)-1H-pyrazol-5-yl)ureido)naphthalen-1-yloxy)pyridin-2-yl)acetamide], for which the IC50 in data set [1] is 7.7 nM; in data set [2], 14500 nM; in data set [3], 138 nM; in data set [5] it was > 1690 nM; in data set [6] it was 412 nM. Also, the EC50 in data set [4] stood at 3300 nM. Moreover, the “MTT Assay (Viability) 4 h d-U937” value in data set [7] is recorded as 0.8%. Moreover, in data set [7], the “MTT Assay (Viability) 24 h d-U937” value is −5.7%.
For `CNS(=O)(=O)Cc1ccc(-n2nc(C(C)(C)C)cc2NC(=O)Nc2ccc(Oc3ccnc(NC(=O)COC)c3)c3ccccc23)cc1` [Example 31, N-(4-(4-(3-(3-tert-butyl-1-(4-((N-methylsulfamoyl)methyl)phenyl)-1H-pyrazol-5-yl)ureido)naphthalen-1-yloxy)pyridin-2-yl)-2-methoxyacetamide], the IC50 is 17.1 nM in data set [1]; 77.2 nM in data set [2]; 1 nM in data set [3]; 19.6 nM in data set [5]; > 149 nM in data set [6]. Moreover, in data set [4], the EC50 worked out at 0.8 nM. Moreover, the “MTT Assay (Viability) 4 h d-U937” value in data set [7] is recorded as 1.7%. Moreover, the “MTT Assay (Viability) 24 h d-U937” value in data set [7] was determined as 50.1%.
For the compound `COc1ccc(-n2nc(C(C)(C)C)cc2NC(=O)Nc2ccc(Oc3ccnc(NC(=O)N4CCOCC4)c3)c3ccccc23)cc1` [Example 9, N-(4-((4-(3-(3-tert-Butyl-1-(4-methoxyphenyl)-1H-pyrazol-5-yl)ureido)naphthalen-1-yl)oxy)pyridin-2-yl)morpholine-4-carboxamide], the IC50 in data set [1] was found to be 2.7 nM; in data set [2], 203 nM; in data set [3], 0.5 nM; in data set [5], 1.4 nM; in data set [6], 2.1 nM. In data set [4], the EC50 stood at 0.6 nM. Further, in data set [7], the “MTT Assay (Viability) 4 h d-U937” value is given as −5.7%. The “MTT Assay (Viability) 24 h d-U937” value in data set [7] amounted to 18.6%.
Turning to `CN(C)C(=O)Nc1cc(Oc2ccc(NC(=O)Nc3cc(C(C)(C)C)nn3-c3ccc(S(C)(=O)=O)cc3)c3ccccc23)ccn1` [Example 15, 3-(4-(4-(3-(3-tert-Butyl-1-(4-(methylsulfonyl)phenyl)-1H-pyrazol-5-yl)ureido)naphthalen-1-yloxy)pyridin-2-yl)-1,1-dimethylurea], the IC50 in data set [1] worked out at 23.6 nM; in data set [2], 81.5 nM; in data set [3], 1.5 nM; in data set [5], 2.4 nM; in data set [6], 16.3 nM. For the same compound, in data set [7], the “MTT Assay (Viability) 4 h d-U937” value is −15.4%. In data set [7], the “MTT Assay (Viability) 24 h d-U937” value is reported as −66.2%.
As for `COCC(=O)Nc1cc(Oc2ccc(NC(=O)Nc3cc(C4(C)CC4)nn3-c3ccc(C)cc3)c3ccccc23)ccn1` [Example 25, 2-methoxy-N-(4-(4-(3-(3-(1-methylcyclopropyl)-1-p-tolyl-1H-pyrazol-5-yl)ureido)naphthalen-1-yloxy)pyridin-2-yl)acetamide], the IC50 in data set [1] is 3.4 nM; in data set [2] it was 3010 nM; in data set [3], 0.9 nM; in data set [5], 0.7 nM; in data set [6] it was 21.8 nM. The “MTT Assay (Viability) 4 h d-U937” value in data set [7] was −7.6%. The “MTT Assay (Viability) 24 h d-U937” value in data set [7] was found to be 4.7%.
`COCC(=O)Nc1cc(Oc2ccc(NC(=O)Nc3cc(C(C)(C)C)nn3-c3ccc(CO)c(OC)c3)c3ccccc23)ccn1` [Example 51, N-(4-(4-(3-(3-tert-butyl-1-(4-(hydroxymethyl)-3-methoxyphenyl)-1H-pyrazol-5-yl)ureido)naphthalen-1-yloxy)pyridin-2-yl)-2-methoxy acetamide]: the IC50 in data set [1] amounted to 11.9 nM; in data set [2] it was 149 nM; in data set [3], 1.6 nM; in data set [5], 38.7 nM; in data set [6] it was 2.5 nM. In data set [7], the “MTT Assay (Viability) 4 h d-U937” value is −5.2%. Further, the “MTT Assay (Viability) 24 h d-U937” value in data set [7] is given as 61.0%.
In the case of `CC(C)(C)c1cc(NC(=O)Nc2ccc(Oc3ccnc(NC(=O)N4CCCC4)c3)c3ccccc23)n(-c2ccc(O)cc2)n1` [Example 35, N-(4-(4-(3-(3-tert-butyl-1-(4-hydroxyphenyl)-1H-pyrazol-5-yl)ureido)naphthalen-1-yloxy)pyridin-2-yl)pyrrolidine-1-carboxamide], the IC50 was 11.3 nM in data set [1]; 324 nM in data set [2]; 1.6 nM in data set [3]; 1.9 nM in data set [5]; 2.1 nM in data set [6]. Further, in data set [7], the “MTT Assay (Viability) 4 h d-U937” value is reported as −15.4%. In data set [7], the “MTT Assay (Viability) 24 h d-U937” value is −41.3%.
`COCC(=O)Nc1cc(Oc2ccc(NC(=O)Nc3cc(C(C)(C)C)nn3-c3cccs3)c3ccccc23)ccn1` [Example 56, N-(4-(4-(3-(3-tert-butyl-1-(thiophen-2-yl)-1H-pyrazol-5-yl)ureido)naphthalen-1-yloxy)pyridin-2-yl)-2-methoxyacetamide]: the IC50 was found to be 6.6 nM in data set [1]; 55 nM in data set [2]; 0.6 nM in data set [3]; 0.5 nM in data set [5]; 13.4 nM in data set [6]. For the same compound, in data set [7], the “MTT Assay (Viability) 4 h d-U937” value was 4.8%. Moreover, the “MTT Assay (Viability) 24 h d-U937” value in data set [7] amounted to 43.1%.
